{"source": "patent US20170281642A1", "about": "“METHODS OF TREATING ACUTE MYELOID LEUKEMIA OR ACUTE LYMPHOID LEUKEMIA USING PHARMACEUTICAL COMPOSITIONS CONTAINING THIENOTRIAZOLODIAZEPINE COMPOUNDS” (ONCOETHIX GmbH, priority 2014, published 2017)", "key": {"[1]": {"tested_on": "c-MYC", "test": "c-MYC mRNA (quantitative RT-PCR) and protein (Western blotting) expression in acute leukemia cell lines", "assay_type": "cell-based", "settings": "500 nM"}, "[2]": {"tested_on": "BRD2/3/4", "test": "BRD2/3/4 expression in acute leukemia cell lines", "assay_type": "cell-based", "settings": "500 nM, 48 h"}, "[3]": {"tested_on": "BRD2", "test": "BRD2 protein expression in acute leukemia cell lines", "assay_type": "cell-based", "settings": "500 nM; most cell lines (OCI-AML3, JURKAT, RS4-11, NB4, NOMO-1, HL60)"}, "[4]": {"tested_on": "BRD3", "test": "BRD3 protein levels in acute leukemia cell lines", "assay_type": "cell-based", "settings": "500 nM; all cell lines evaluated"}, "[5]": {"tested_on": "BRD4", "test": "BRD4 protein expression in acute leukemia cell lines", "assay_type": "cell-based", "settings": "500 nM; only OCI-AML3, NB4 and K562 cell lines"}, "[6]": {"tested_on": "HEXIM1", "test": "HEXIM1 mRNA and protein expression in acute leukemia cell lines", "assay_type": "cell-based"}, "[7]": {"tested_on": "nine AML and four ALL cell lines", "test": "cell viability, MTT assay", "assay_type": "cell-based", "method": "Cellular effects of compound (1-1) in various acute leukemia subtypes were evaluated. Cell viability after compound (1-1) exposure was evaluated with the MTT assay in nine AML and four ALL cell lines. Significant growth inhibition, defined as submicromolar IC50, was found in six of nine AML cell lines and all four ALL cell lines tested. The K562, KG1a and HL60 AML cell lines were resistant to compound (1-1)."}, "[8]": {"tested_on": "AML and ALL cell lines", "test": "cell cycle analysis", "assay_type": "cell-based", "settings": "500 nM, 48 h"}, "[9]": {"tested_on": "AML and ALL cell lines", "test": "apoptosis by Annexin V staining and PI uptake", "assay_type": "cell-based", "settings": "72 h; for apoptotic cells: 500 nM", "method": "(§1) At 500 nM compound (1-1), 30-90% of cells were apoptotic in five of nine AML cell lines (HEL, NB4, NOMO-1, OCI-AML3, KASUMI) and 50-90% in two of four ALL cell lines (JURKAT and RS4-11; FIG. 14C)."}, "[10]": {"tested_on": "caspase-3 and cytochrome c", "test": "caspase-3 activation and cytochrome c release in cell lines", "assay_type": "cell-based", "settings": "500 nM, 72 h", "method": "as §1"}, "[11]": {"tested_on": "BM mononuclear cells from ALL and AML patients", "test": "ex vivo apoptosis in BM mononuclear cells of ALL and AML patients", "assay_type": "cell-based, human", "settings": "500 nM, 72 h", "method": "(§2) Apoptosis, mRNA and protein expression were evaluated in BM mononuclear cells obtained from representative newly diagnosed or relapsed ALL and AML patients, see Table 7, treated in the context of an ongoing Phase Ib study with compound (1-1) and for whom sufficient material for analysis was available. Apoptosis induction by exposure to 500 nM compound (1-1) for 72 h was variable among the patient samples tested (FIG. 15A)."}, "[12]": {"tested_on": "caspase-3 and cytochrome c", "test": "ex vivo caspase-3 activation and mitochondrial cytochrome c release in AML patient samples", "assay_type": "cell-based, human", "settings": "samples from three AML patients", "method": "as §2"}, "[13]": {"tested_on": "c-MYC", "test": "ex vivo c-MYC mRNA and protein expression in patient samples", "assay_type": "cell-based, human", "settings": "500 nM", "method": "as §2"}, "[14]": {"tested_on": "BRD2", "test": "ex vivo BRD2 protein expression in primary AML samples", "assay_type": "cell-based, human", "settings": "500 nM, 72 h; three primary AML samples"}}, "note": "“Also recorded” adds a separate entry of the source.", "data": [{"compound": "Cc1sc2c(c1C)C(c1ccc(Cl)cc1)=N[C@@H](CC(=O)Nc1ccc(O)cc1)c1nnc(C)n1-2", "note": "[compound (1-1), 2-[(6S)-4-(4-chlorophenyl)-2,3,9-trimethyl-6H-thienol[3,2-f]-[1,2,4]triazolo[4,3-a][1,4]diazepin-6-yl]-N-(4-hydroxyphenyl)acetamide dihydrate]", "values": [{"measurement": "c-MYC protein levels", "setting": "[1]; 24-72 h, all cell lines evaluated other than KG1 (OCI-AML3, K562, NB4, NOMO-1, HL60, JURKAT, RS4-11), dihydrate", "result": "decreased to a variable extent; also recorded: Decreases"}, {"measurement": "c-MYC gene expression", "setting": "[1]; 4 h and 24 h, same cell lines and KG1", "result": "decreased ubiquitously"}, {"measurement": "c-MYC RNA levels", "setting": "[1]; 24 h, all AML and ALL cell lines (K562, HL-60, NB4, NOMO-1, KG1, OCI-AML3, JURKAT, RS4-11)", "result": "ubiquitously downregulated"}, {"measurement": "BRD2, BRD3 and BRD4 mRNA expression", "setting": "[2]; HL60 and NOMO-1 cells", "result": "increased"}, {"measurement": "BRD2, BRD3 and BRD4 mRNA expression", "setting": "[2]; K562 and NB4 cell lines", "result": "dramatically decreased"}, {"measurement": "BRD2, BRD3 and BRD4 mRNA expression", "setting": "[2]; K562 cells", "result": "significantly decreased"}, {"measurement": "BRD2, BRD3 and BRD4 mRNA expression", "setting": "[2]; KG1, OCI-AML3, JURKAT, BV-173 and RS4-11", "result": "mild variations"}, {"measurement": "BRD2, BRD3 and BRD4 mRNA expression", "setting": "[2]; other cell lines (Example 7)", "result": "minimal to no increases"}, {"measurement": "BRD2 protein expression", "setting": "[3]", "result": "decrease"}, {"measurement": "BRD3 protein levels", "setting": "[4]", "result": "unmodified"}, {"measurement": "BRD4 protein expression", "setting": "[5]", "result": "decreased"}, {"measurement": "HEXIM1 mRNA expression", "setting": "[6]; 500 nM, 4 and 24 h, K562, HL-60, NB4, NOMO-1, KG1, OCI-AML3, JURKAT, RS4-11", "result": "increased"}, {"measurement": "HEXIM1 protein levels", "setting": "[6]; 500 nM, 24-72 h, OCI-AML3, JURKAT and RS4-11 cell lines, dihydrate", "result": "Increases"}, {"measurement": "HEXIM1 mRNA expression", "setting": "[6]; 500 nM, 24 h, all cell lines except K562", "result": "increased"}, {"measurement": "HEXIM1 mRNA expression, increase", "setting": "[6]; 500 nM, 24 h, compound (1-1) resistant K562 cells", "result": "insignificant (less than twice)"}, {"measurement": "HEXIM1 upregulation, rank among cell lines", "setting": "[6]; OCI-AML3 and RS4-11 cell lines", "result": "highest"}, {"measurement": "sensitivity to compound (1-1), MTT", "setting": "[7]; K562, KG1a and HL60 AML cell lines", "result": "resistant"}, {"measurement": "IC50 (growth inhibition, MTT)", "setting": "[7]; six of nine AML cell lines and all four ALL cell lines", "result": "submicromolar"}, {"measurement": "cells in the sub-G1 phase", "setting": "[8]; KG1a, KG1, HEL, KASUMI and JURKAT", "result": "significant increase"}, {"measurement": "transition from G1 to S-phase", "setting": "[8]; all 13 cell lines", "result": "decreased"}, {"measurement": "apoptotic cells", "setting": "[9]; five of nine AML cell lines (HEL, NB4, NOMO-1, OCI-AML3, KASUMI)", "result": "30-90%"}, {"measurement": "apoptotic cells", "setting": "[9]; two of four ALL cell lines (JURKAT and RS4-11)", "result": "50-90%"}, {"measurement": "apoptosis (Annexin V staining and PI uptake)", "setting": "[9]; 25 to 500 nM", "result": "significant apoptosis"}, {"measurement": "caspase-3 activation", "setting": "[10]", "result": "activated"}, {"measurement": "cytochrome c release", "setting": "[10]", "result": "induced"}, {"measurement": "apoptosis", "setting": "[11]; 6 of 14 AML patients (4, 8, 9, 14, 16, 18)", "result": "no or a mild increase"}, {"measurement": "increased apoptosis compared to control-treated cells", "setting": "[11]; BM cells from 8 of 14 AML patients (3, 15, 17, 26, 27, 28, 31, 38)", "result": "35-90%"}, {"measurement": "apoptosis", "setting": "[11]; two ALL patients (40 and 43)", "result": "no or a mild increase"}, {"measurement": "activation of caspase-3", "setting": "[12]", "result": "induced activation"}, {"measurement": "mitochondrial cytochrome c release", "setting": "[12]", "result": "induced"}, {"measurement": "c-MYC mRNA expression", "setting": "[13]; 48 h, seven AML samples and two ALL samples", "result": "downregulated"}, {"measurement": "c-MYC protein expression", "setting": "[13]; 72 h, three primary AML samples", "result": "clearly decreased"}, {"measurement": "BRD2 protein expression", "setting": "[14]", "result": "clearly decreased"}]}]}
